Data as given in ChEMBL document CHEMBL1144593, “Bicyclic carbamates as inhibitors of papain-like cathepsin proteases” (Bioorg Med Chem Lett, 2007).
The source made the active and inactive calls. The calls are words filed in the database; no cut-off is given here.

Tests used:
Pro-cathepsin H = target: T1, Pro-cathepsin H (Homo sapiens, UniProt P09668); assay: Inhibition of human recombinant cathepsin H
T1 sequence (P09668 whole entry): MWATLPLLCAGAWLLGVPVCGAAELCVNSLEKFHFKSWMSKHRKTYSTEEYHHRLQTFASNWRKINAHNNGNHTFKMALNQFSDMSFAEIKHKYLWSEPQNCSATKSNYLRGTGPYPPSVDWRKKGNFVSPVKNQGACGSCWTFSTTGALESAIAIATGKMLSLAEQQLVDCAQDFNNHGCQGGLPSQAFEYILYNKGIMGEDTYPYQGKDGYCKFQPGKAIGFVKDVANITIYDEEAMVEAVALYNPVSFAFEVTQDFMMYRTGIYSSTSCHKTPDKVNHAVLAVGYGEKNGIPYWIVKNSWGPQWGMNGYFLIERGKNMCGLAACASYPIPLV

[1] = target: Prothrombin (Homo sapiens) (UniProt P00734); assay: Inhibition of thrombin
Cathepsin S = Cathepsin S (Homo sapiens, UniProt P25774); assay: Inhibition of human recombinant cathepsin S
Sequence of Cathepsin S (P25774 whole entry): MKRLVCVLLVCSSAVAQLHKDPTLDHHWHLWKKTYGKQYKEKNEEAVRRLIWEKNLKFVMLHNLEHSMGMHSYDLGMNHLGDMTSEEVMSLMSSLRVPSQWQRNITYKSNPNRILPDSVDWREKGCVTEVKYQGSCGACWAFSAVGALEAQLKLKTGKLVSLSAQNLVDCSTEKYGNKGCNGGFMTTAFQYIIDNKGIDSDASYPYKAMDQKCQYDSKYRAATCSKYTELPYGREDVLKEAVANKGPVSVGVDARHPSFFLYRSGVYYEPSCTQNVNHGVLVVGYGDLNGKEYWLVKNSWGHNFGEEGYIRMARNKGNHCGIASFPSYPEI

Cathepsin K = target: T2, Cathepsin K (Homo sapiens, UniProt P43235); assay: Inhibition of human recombinant cathepsin K
T2 sequence (P43235 whole entry): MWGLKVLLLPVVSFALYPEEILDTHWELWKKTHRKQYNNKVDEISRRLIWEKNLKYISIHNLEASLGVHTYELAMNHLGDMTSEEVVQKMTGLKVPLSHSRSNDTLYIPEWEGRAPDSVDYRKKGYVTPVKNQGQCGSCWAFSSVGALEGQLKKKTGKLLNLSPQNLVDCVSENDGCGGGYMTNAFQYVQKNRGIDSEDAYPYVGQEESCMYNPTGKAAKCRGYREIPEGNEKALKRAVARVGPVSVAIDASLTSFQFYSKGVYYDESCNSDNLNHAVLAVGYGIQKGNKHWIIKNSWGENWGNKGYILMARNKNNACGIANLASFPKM

Cathepsin L2 = target: T3, Cathepsin L2 (Homo sapiens, UniProt O60911); assay: Inhibition of human recombinant cathepsin V
T3 sequence (O60911 whole entry): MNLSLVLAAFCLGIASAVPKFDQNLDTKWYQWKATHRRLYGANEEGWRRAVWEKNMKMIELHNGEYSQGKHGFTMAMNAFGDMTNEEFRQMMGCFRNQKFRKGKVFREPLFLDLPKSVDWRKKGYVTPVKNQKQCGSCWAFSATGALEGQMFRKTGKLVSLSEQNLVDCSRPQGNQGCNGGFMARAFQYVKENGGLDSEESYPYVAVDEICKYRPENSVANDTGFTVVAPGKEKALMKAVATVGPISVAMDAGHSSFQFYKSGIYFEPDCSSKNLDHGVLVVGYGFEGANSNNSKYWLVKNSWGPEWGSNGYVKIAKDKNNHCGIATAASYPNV

Trypsin (Homo sapiens) = Trypsin (Homo sapiens) (UniProt P07477+P07478+P35030); assay: Inhibition of trypsin; type: protein assay
Cathepsin B = Cathepsin B (Homo sapiens, UniProt P07858); assay: Inhibition of human recombinant cathepsin B
Procathepsin L = Procathepsin L (Homo sapiens, UniProt P07711); assay: Inhibition of human recombinant cathepsin L
Sequence of Procathepsin L (P07711 whole entry): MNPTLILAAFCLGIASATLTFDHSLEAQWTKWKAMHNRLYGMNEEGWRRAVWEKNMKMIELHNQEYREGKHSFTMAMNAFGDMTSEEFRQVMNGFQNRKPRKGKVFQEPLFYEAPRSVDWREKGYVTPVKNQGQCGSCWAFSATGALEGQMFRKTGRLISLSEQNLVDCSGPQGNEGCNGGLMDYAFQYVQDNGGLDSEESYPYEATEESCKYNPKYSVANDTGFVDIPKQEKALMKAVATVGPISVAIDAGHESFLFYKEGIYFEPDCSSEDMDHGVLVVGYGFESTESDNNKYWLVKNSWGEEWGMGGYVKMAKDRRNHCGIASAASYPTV

Cathepsin F = target: T4, Cathepsin F (Homo sapiens, UniProt Q9UBX1); assay: Inhibition of human recombinant cathepsin F
T4 sequence (Q9UBX1 whole entry): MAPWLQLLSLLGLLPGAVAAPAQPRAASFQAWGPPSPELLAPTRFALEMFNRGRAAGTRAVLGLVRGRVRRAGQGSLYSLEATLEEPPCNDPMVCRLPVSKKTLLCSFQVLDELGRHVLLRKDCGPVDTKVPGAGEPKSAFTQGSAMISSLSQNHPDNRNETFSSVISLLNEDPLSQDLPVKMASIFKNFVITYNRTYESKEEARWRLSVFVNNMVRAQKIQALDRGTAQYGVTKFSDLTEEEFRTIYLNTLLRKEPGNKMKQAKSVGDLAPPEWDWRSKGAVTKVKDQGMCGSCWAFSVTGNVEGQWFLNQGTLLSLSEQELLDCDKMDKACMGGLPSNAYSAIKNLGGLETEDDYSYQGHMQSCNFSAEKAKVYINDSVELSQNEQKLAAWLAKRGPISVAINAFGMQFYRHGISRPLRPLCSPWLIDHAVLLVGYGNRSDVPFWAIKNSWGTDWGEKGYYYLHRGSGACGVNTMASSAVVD

Dipeptidyl peptidase 1 = Dipeptidyl peptidase 1 (Homo sapiens, UniProt P53634); assay: Inhibition of human recombinant cathepsin C
Sequence of Dipeptidyl peptidase 1 (P53634 25-134 limits assumed): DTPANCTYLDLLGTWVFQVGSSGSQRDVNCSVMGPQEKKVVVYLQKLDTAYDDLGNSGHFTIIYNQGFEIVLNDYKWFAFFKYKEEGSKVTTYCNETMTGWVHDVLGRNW
Sequence of Dipeptidyl peptidase 1 (P53634 231-394 limits assumed): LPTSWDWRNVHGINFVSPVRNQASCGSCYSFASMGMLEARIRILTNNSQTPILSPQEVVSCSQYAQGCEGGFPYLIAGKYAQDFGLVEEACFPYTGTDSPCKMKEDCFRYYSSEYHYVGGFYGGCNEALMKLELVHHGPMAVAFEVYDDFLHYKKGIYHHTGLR
Sequence of Dipeptidyl peptidase 1 (P53634 395-463 limits assumed): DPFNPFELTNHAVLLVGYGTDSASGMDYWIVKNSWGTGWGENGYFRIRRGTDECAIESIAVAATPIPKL

| IC50 (Pro-cathepsin H) [nM] | Activity [1] | IC50 (Cathepsin S) [nM] | IC50 (Cathepsin K) [nM] | IC50 (Cathepsin L2) [nM] | Activity (Trypsin (Homo sapiens)) | IC50 (Cathepsin B) [nM] | IC50 (Procathepsin L) [nM] | IC50 (Cathepsin F) [nM] | IC50 (Dipeptidyl peptidase 1) [nM] | SMILES |
| --- | --- | --- | --- | --- | --- | --- | --- | --- | --- | --- |
| > 30000 | inactive | 473 | 2440 | 3320 | inactive | 46 | 1270 | 5910 | 1730 | Cc1cccc(O[C@H]2CCN3C[C@@H]2OC3=O)c1C (racemic) |
| > 100000 | inactive | > 100000 | > 100000 | > 100000 | inactive | > 100000 | > 100000 | > 100000 | > 100000 | Cc1cccc(O[C@@H]2CCNC[C@H]2O)c1C |
| > 10000 | inactive | 298 | 1270 | 894 | inactive | 8 | 230 | 1830 | 191 | CC(C)CO[C@H]1CCN2C[C@H]1OC2=O |
| > 100000 | inactive | 4550 | > 30000 | > 10000 | inactive | 158 | 5820 | > 10000 | > 10000 | O=C1O[C@H]2CN1CC[C@@H]2Br |
| > 10000 | inactive | 174 | 511 | 1290 | inactive | 2 | 263 | 3760 | 403 | O=C1O[C@@H]2CN1CC[C@@H]2OCc1ccccc1 |
| > 100000 | inactive | 696 | 1830 | 5170 | inactive | 519 | 994 | > 10000 | 606 | S=C1O[C@@H]2CN1CC[C@@H]2Oc1ccccc1 |
| > 100000 | inactive | > 100000 | > 100000 | > 100000 | inactive | > 100000 | > 100000 | > 100000 | > 100000 | Cc1cccc(O[C@@H]2CCNC[C@@H]2O)c1C |
| > 100000 | inactive | > 100000 | > 100000 | > 100000 | inactive | > 100000 | > 100000 | > 100000 | > 100000 | Cc1cccc(OCC2CN(C)C(=O)O2)c1C (stereo not given) |
| 6590 | inactive | 17 | 104 | 158 | inactive | 5 | 26 | 487 | 29 | O=C1O[C@@H]2CN1CC[C@@H]2Oc1ccccc1 |
| 2650 | inactive | 16 | 38 | 131 | inactive | 1 | 22 | 331 | 18 | Cc1cccc(O[C@H]2CCN3C[C@H]2OC3=O)c1C (relative stereo) |
